PubChem BioAssay (NCI)
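Interpolation was linear, between the two tested concentrations surrounding the appropriate level; five concentrations were tested over 48 hours in 96-well plates. TGI is the concentration that stops growth completely.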

Columns and labels:
Experiment in all cases: NCI tumour cell line growth inhibition, 48 h
[1] = test system: SF-268 CNS
[2] = test system: HCT-116 colon
[3] = test system: SK-MEL-28 melanoma
[4] = test system: NCI-H460 lung
[5] = test system: K-562 leukemia
[6] = test system: NCI/ADR-RES ovarian
[7] = test system: RXF 393 renal
[8] = test system: UACC-62 melanoma
[9] = test system: UO-31 renal
[10] = test system: SF-295 CNS
[11] = test system: MCF7 breast
[12] = test system: HT29 colon
[13] = test system: NCI-H226 lung
[14] = test system: SF-539 CNS
[15] = test system: HCC-2998 colon
[16] = test system: HCT-15 colon
[17] = test system: UACC-257 melanoma
[18] = test system: MALME-3M melanoma
[19] = test system: OVCAR-3 ovarian
[20] = test system: SR leukemia
[21] = test system: OVCAR-8 ovarian
[22] = test system: CAKI-1 renal
[23] = test system: RPMI-8226 leukemia
[24] = test system: DU-145 prostate
[25] = test system: EKVX NSCLC
[26] = test system: MOLT-4 leukemia
[27] = test system: OVCAR-5 ovarian
[28] = test system: SK-MEL-2 melanoma
[29] = test system: KM12 colon
[30] = test system: 786-0 renal
[31] = test system: BT-549 breast
[32] = test system: HOP-92 NSCLC
[33] = test system: OVCAR-4 ovarian
[34] = test system: IGROV1 ovarian
[35] = test system: TK-10 renal
[36] = test system: LOX IMVI melanoma
[37] = test system: U251 CNS
[38] = test system: HS 578T breast
[39] = test system: A498 renal
[40] = test system: SN12C renal
[41] = test system: HOP-62 NSCLC
[42] = test system: HL-60(TB) leukemia
[43] = test system: NCI-H522 lung
[44] = test system: SW-620 colon
[45] = test system: COLO 205 colon
[46] = test system: MDA-MB-435
[47] = test system: SNB-19 CNS
[48] = test system: PC-3 prostate
[49] = test system: A549 NSCLC
[50] = test system: ACHN renal
[51] = test system: NCI-H23 lung
[52] = test system: MDA-N
[53] = test system: M14 melanoma
[54] = test system: SK-MEL-5 melanoma
[55] = test system: MDA-MB-231 breast
[56] = test system: T-47D breast
[57] = test system: SNB-75 CNS
[58] = test system: SK-OV-3 ovarian
[59] = test system: CCRF-CEM leukemia

For `Cc1nc2sccn2c1C(=O)OCCOCCOCCOCCOC(=O)c1c(C)nc2sccn12`, the TGI [1] was > 100 µM, the TGI [2] was > 100 µM and the TGI [3] was > 100 µM. The TGI [4] was > 100 µM, the TGI [5] was > 100 µM and the TGI [6] was > 100 µM. For the same compound, the TGI [7] was > 100 µM, the TGI [8] was > 100 µM and the TGI [9] was > 100 µM. For the same compound, the TGI [10] was > 100 µM, the TGI [11] was > 100 µM and the TGI [12] was > 100 µM. For the same compound, the TGI [13] was > 100 µM, the TGI [14] was > 100 µM and the TGI [15] was > 100 µM. For the same compound, the TGI [16] was > 100 µM, the TGI [17] was > 100 µM and the TGI [18] was > 100 µM. For the same compound, the TGI [19] was > 100 µM, the TGI [20] was > 100 µM and the TGI [21] was > 100 µM. For the same compound, the TGI [22] was > 100 µM, the TGI [23] was > 100 µM and the TGI [24] was > 100 µM. The TGI [25] was > 100 µM, the TGI [26] was > 100 µM and the TGI [27] was > 100 µM. The TGI [28] was > 100 µM, the TGI [29] was > 100 µM and the TGI [30] was > 100 µM. The TGI [31] was > 100 µM, the TGI [32] was > 100 µM and the TGI [33] was > 100 µM. The TGI [34] was > 100 µM, the TGI [35] was > 100 µM and the TGI [36] was > 100 µM. The TGI [37] was > 100 µM, the TGI [38] was > 100 µM and the TGI [39] was > 100 µM. For the same compound, the TGI [40] was > 100 µM, the TGI [41] was > 100 µM and the TGI [42] was 34 µM. The TGI [43] was > 100 µM, the TGI [44] was > 100 µM and the TGI [45] was > 100 µM. For the same compound, the TGI [46] was > 100 µM, the TGI [47] was > 100 µM and the TGI [48] was > 100 µM. For the same compound, the TGI [49] was > 100 µM, the TGI [50] was > 100 µM and the TGI [51] was > 100 µM. For the same compound, the TGI [52] was > 100 µM, the TGI [53] was > 100 µM and the TGI [54] was 35.5 µM. For the same compound, the TGI [55] was > 100 µM.

`COc1cc([C@@H]2c3cc4c(cc3[C@@H](Nc3ccc(NC(=O)c5cc(NC(=O)c6cc([N+](=O)[O-])cn6C)cn5C)cc3)[C@H]3COC(=O)[C@H]23)OCO4)cc(OC)c1O` was tested, and the TGI [1] was > 79.7 µM, the TGI [2] was 33.3 µM and the TGI [4] was 13.2 µM. For the same compound, the TGI [5] was 14.4 µM, the TGI [6] was > 100 µM and the TGI [7] was > 62.3 µM. For the same compound, the TGI [56] was > 62.8 µM, the TGI [8] was > 100 µM and the TGI [9] was > 53 µM. The TGI [57] was 37 µM, the TGI [10] was > 100 µM and the TGI [11] was > 39.1 µM. For the same compound, the TGI [12] was 98.4 µM, the TGI [13] was > 44.4 µM and the TGI [14] was > 100 µM. The TGI [15] was 26.4 µM, the TGI [16] was > 55.2 µM and the TGI [17] was > 82.4 µM. For the same compound, the TGI [18] was > 100 µM, the TGI [19] was > 100 µM and the TGI [20] was > 100 µM. For the same compound, the TGI [21] was 89.8 µM, the TGI [22] was > 28.5 µM and the TGI [23] was 0.486 µM. For the same compound, the TGI [24] was 5.22 µM, the TGI [25] was > 64.2 µM and the TGI [27] was 99.6 µM. For the same compound, the TGI [28] was > 100 µM, the TGI [29] was 61.8 µM and the TGI [30] was > 39.7 µM. The TGI [31] was > 100 µM, the TGI [58] was > 55.7 µM and the TGI [32] was > 39.2 µM. The TGI [33] was > 100 µM, the TGI [34] was > 39 µM and the TGI [35] was > 100 µM. For the same compound, the TGI [36] was > 44.1 µM, the TGI [37] was 26.2 µM and the TGI [38] was > 100 µM. For the same compound, the TGI [39] was > 52.9 µM, the TGI [59] was > 37.8 µM and the TGI [40] was 26.5 µM. The TGI [41] was 14.4 µM, the TGI [42] was 11.3 µM and the TGI [43] was > 100 µM. The TGI [44] was > 62.5 µM, the TGI [45] was 17.8 µM and the TGI [47] was > 55.1 µM. For the same compound, the TGI [49] was > 49.9 µM, the TGI [50] was 12.1 µM and the TGI [51] was > 48.7 µM. The TGI [52] was > 100 µM, the TGI [53] was 47.7 µM and the TGI [54] was > 33.5 µM. The TGI [55] was > 64 µM.

In the case of `C1=C[C@]2(CCC13OCCO3)COc1ccccc12`, the TGI [2] is reported as > 100 µM, the TGI [3] is reported as > 100 µM and the TGI [4] is reported as > 100 µM. For the same compound, the TGI [5] was > 100 µM, the TGI [6] was 96.4 µM and the TGI [56] was > 100 µM. For the same compound, the TGI [8] was > 100 µM, the TGI [9] was > 100 µM and the TGI [57] was > 100 µM. For the same compound, the TGI [10] was > 100 µM, the TGI [11] was > 100 µM and the TGI [12] was 80.4 µM. For the same compound, the TGI [13] was 81.2 µM, the TGI [15] was > 100 µM and the TGI [16] was > 100 µM. The TGI [17] was > 100 µM, the TGI [19] was > 100 µM and the TGI [20] was > 100 µM. The TGI [21] was > 100 µM, the TGI [22] was > 100 µM and the TGI [23] was > 100 µM. For the same compound, the TGI [24] was > 100 µM, the TGI [25] was > 100 µM and the TGI [26] was > 100 µM. The TGI [27] was > 100 µM, the TGI [28] was > 100 µM and the TGI [29] was 75.5 µM. For the same compound, the TGI [30] was > 100 µM, the TGI [58] was > 100 µM and the TGI [32] was > 100 µM. For the same compound, the TGI [33] was > 100 µM, the TGI [35] was > 100 µM and the TGI [36] was 59 µM. For the same compound, the TGI [37] was > 100 µM, the TGI [39] was > 100 µM and the TGI [59] was > 100 µM. For the same compound, the TGI [40] was > 100 µM, the TGI [41] was > 100 µM and the TGI [42] was 38.4 µM. For the same compound, the TGI [44] was > 100 µM, the TGI [45] was > 100 µM and the TGI [46] was > 100 µM. The TGI [47] was > 100 µM, the TGI [48] was > 100 µM and the TGI [49] was > 100 µM. For the same compound, the TGI [50] was > 100 µM, the TGI [51] was 99.5 µM and the TGI [52] was > 100 µM. The TGI [53] was > 100 µM, the TGI [54] was > 100 µM and the TGI [55] was > 100 µM.
